Article PMC8217170, “Phase Ib dose-escalation study of the hypoxia-modifier Myo-inositol trispyrophosphate in patients with hepatopancreatobiliary tumors” (Nature Communications, 2021)
Where “and” joins values, the source holds several entries; their conditions need not be identical. Equal entries are not always repeated.

Assay: Plasma levels and pharmacokinetics of intravenous ITPP
[1] = individual patients, cohort 1 (1866 mg/m2)
[2] = individual patients, cohort 2 (3732 mg/m2)

In the case of O=P1(O)OC2C3OP(=O)(O)OP(=O)(O)OC3C3OP(=O)(O)OP(=O)(O)OC3C2OP(=O)(O)O1 (centres unmarked) [ITPP, Myo-inositol trispyrophosphate], the “ITPP plasma levels: Concentration” value (cohort 2, patient 7, day 2, hour 0, sample 8_2_1) is reported as 0 µg/mL, the “ITPP plasma levels, Concentration” value (cohort 2, patient 7, day 2, hour 9) is reported as 98.6 µg/mL and the “ITPP plasma levels, Concentration” value (cohort 2, patient 7, day 3, hour 0) is reported as 0 µg/mL. The “ITPP plasma levels, Concentration” value (cohort 2, patient 7, day 3, hour 9) was 93.7 µg/mL, the AUC (cohort 3, 5600 mg/m2) was 1168.7 µg·h/mL and the AUMC (cohort 3, 5600 mg/m2) was 6445.9 h2*mg/L. For the same compound, the CL (cohort 3, 5600 mg/m2) was 4.4 L/h, the Clast (cohort 3, 5600 mg/m2) was 59.5 µg/mL and the Cmax (cohort 3, 5600 mg/m2) was 153.4 µg/mL. The Cmin (cohort 3, 5600 mg/m2) was 0.0 µg/mL, the “Elimination rate λz” value (cohort 3, 5600 mg/m2) was 0.5 h⁻¹ and the “Half life/T0.5” value (cohort 3, 5600 mg/m2) was 1.4 h. For the same compound, the MRT (cohort 3, 5600 mg/m2) was 1.5 h, the Tlast (cohort 3, 5600 mg/m2) was 10.0 h and the Tmax (cohort 3, 5600 mg/m2) was 6.0 h. For the same compound, the VSS (cohort 3, 5600 mg/m2) was 9.2 L, the AUC (cohort 4, 7000 mg/m2) was 1649.5 µg·h/mL and the AUMC (cohort 4, 7000 mg/m2) was 9421.8 h2*mg/L. For the same compound, the CL (cohort 4, 7000 mg/m2) was 3.1 L/h, the Clast (cohort 4, 7000 mg/m2) was 127.5 µg/mL and the Cmax (cohort 4, 7000 mg/m2) was 228.0 µg/mL. For the same compound, the Cmin (cohort 4, 7000 mg/m2) was 0.0 µg/mL, the “Elimination rate λz” value (cohort 4, 7000 mg/m2) was 0.2 h⁻¹ and the “Half life/T0.5” value (cohort 4, 7000 mg/m2) was 3.3 h. It also gave an MRT (cohort 4, 7000 mg/m2) of 1.7 h, a Tlast (cohort 4, 7000 mg/m2) of 10.0 h and a Tmax (cohort 4, 7000 mg/m2) of 6.0 h. It also gave a VSS (cohort 4, 7000 mg/m2) of 12.8 L, an AUC (cohort 5, 8750 mg/m2) of 1850.5 µg·h/mL and an AUMC (cohort 5, 8750 mg/m2) of 10396.4 h2*mg/L. For the same compound, the CL (cohort 5, 8750 mg/m2) was 4.0 L/h, the Clast (cohort 5, 8750 mg/m2) was 116.8 µg/mL and the Cmax (cohort 5, 8750 mg/m2) was 257.8 µg/mL. For the same compound, the Cmin (cohort 5, 8750 mg/m2) was 0.0 µg/mL, the “Elimination rate λz” value (cohort 5, 8750 mg/m2) was 0.3 h⁻¹ and the “Half life/T0.5” value (cohort 5, 8750 mg/m2) was 2.1 h. The MRT (cohort 5, 8750 mg/m2) was 1.6 h, the Tlast (cohort 5, 8750 mg/m2) was 10.0 h and the Tmax (cohort 5, 8750 mg/m2) was 6.0 h. It also gave a VSS (cohort 5, 8750 mg/m2) of 11.1 L, an AUC (cohort 6, 10500 mg/m2) of 2439.2 µg·h/mL and an AUMC (cohort 6, 10500 mg/m2) of 13886.7 h2*mg/L. The CL (cohort 6, 10500 mg/m2) was 3.3 L/h, the Clast (cohort 6, 10500 mg/m2) was 186.4 µg/mL and the Cmax (cohort 6, 10500 mg/m2) was 313.4 µg/mL. The Cmin (cohort 6, 10500 mg/m2) was 0.0 µg/mL, the “Elimination rate λz” value (cohort 6, 10500 mg/m2) was 0.3 h⁻¹ and the “Half life/T0.5” value (cohort 6, 10500 mg/m2) was 2.6 h. For the same compound, the MRT (cohort 6, 10500 mg/m2) was 1.7 h, the Tlast (cohort 6, 10500 mg/m2) was 10.0 h and the Tmax (cohort 6, 10500 mg/m2) was 6.0 h. The VSS (cohort 6, 10500 mg/m2) was 11.7 L, the AUC (cohort 7, 12390 mg/m2) was 2457.2 µg·h/mL and the AUMC (cohort 7, 12390 mg/m2) was 14095.2 h2*mg/L. It also gave a CL (cohort 7, 12390 mg/m2) of 4.4 L/h, a Clast (cohort 7, 12390 mg/m2) of 149.4 µg/mL and a Cmax (cohort 7, 12390 mg/m2) of 353.6 µg/mL. For the same compound, the Cmin (cohort 7, 12390 mg/m2) was 0.0 µg/mL, the “Elimination rate λz” value (cohort 7, 12390 mg/m2) was 0.4 h⁻¹ and the “Half life/T0.5” value (cohort 7, 12390 mg/m2) was 1.7 h. It also gave an MRT (cohort 7, 12390 mg/m2) of 1.7 h, a Tlast (cohort 7, 12390 mg/m2) of 10.0 h and a Tmax (cohort 7, 12390 mg/m2) of 6.0 h. For the same compound, the VSS (cohort 7, 12390 mg/m2) was 11.4 L, the AUC (cohort 8, 14500 mg/m2) was 2864.1 µg·h/mL and the AUMC (cohort 8, 14500 mg/m2) was 16280.4 h2*mg/L. It also gave a CL (cohort 8, 14500 mg/m2) of 4.4 L/h, a Clast (cohort 8, 14500 mg/m2) of 166.0 µg/mL and a Cmax (cohort 8, 14500 mg/m2) of 439.2 µg/mL. For the same compound, the Cmin (cohort 8, 14500 mg/m2) was 0.0 µg/mL, the “Elimination rate λz” value (cohort 8, 14500 mg/m2) was 0.4 h⁻¹ and the “Half life/T0.5” value (cohort 8, 14500 mg/m2) was 1.8 h. The MRT (cohort 8, 14500 mg/m2) was 1.7 h, the Tlast (cohort 8, 14500 mg/m2) was 10.0 h and the Tmax (cohort 8, 14500 mg/m2) was 6.0 h. For the same compound, the VSS (cohort 8, 14500 mg/m2) was 11.4 L, the AUCTmax [1] was 338.2 µg·h/mL and 372.1 µg·h/mL and 311.3 µg·h/mL and 349.1 µg·h/mL and the “AUC∞” value [1] was 366.8 µg·h/mL. For the same compound, the “AUC∞ / Dose” value [1] was 0.2 mg·h/L/mg, the AUMCTmax [1] was 1863.8 h2*mg/L and 2050.4 h2*mg/L and 1825.7 h2*mg/L and 1904.2 h2*mg/L and the “AUMC∞” value [1] was 2201.9 h2*mg/L. The CLO [1] was 5.1 L/h, the Clast [1] was 15.7 µg/mL and 46.6 µg/mL and 22.8 µg/mL and 33.9 µg/mL and the Cmax [1] was 45.8 µg/mL and 54.7 µg/mL and 55.3 µg/mL and 42.2 µg/mL. For the same compound, the “Cmax / Dose” value [1] was 0.0 mg/L/mg, the Cmin [1] was 0 µg/mL and the “Elimination rate λz” value [1] was 0.5 h⁻¹. The “Half-life / T0.5” value [1] was 1.3 h, the MRTTmax [1] was 1.5 h (3×) and 1.9 h and the “MRT∞” value [1] was 2.0 h. The Tlast [1] was 10 h (3×) and 9 h, the Tmax [1] was 6.0 h (3×) and 8.5 h and the VSSO [1] was 10.2 L. The VZO [1] was 9.3 L, the AUCTmax [2] was 745.9 µg·h/mL and 761.5 µg·h/mL and 1032.3 µg·h/mL and the “AUC∞” value [2] was 826.4 µg·h/mL and 896.6 µg·h/mL and 1215.3 µg·h/mL. The “AUC∞ / Dose” value [2] was 0.2 h*mg/L/mg (2×) and 0.3 h*mg/L/mg, the AUMCTmax [2] was 4278.4 h2*mg/L and 4442.2 h2*mg/L and 6030.7 h2*mg/L and the “AUMC∞” value [2] was 5242.1 h2*mg/L and 6142.5 h2*mg/L and 8341.9 h2*mg/L. For the same compound, the CLO [2] was 4.5 L/h and 4.2 L/h and 3.1 L/h, the Clast [2] was 40.6 µg/mL and 52.1 µg/mL and 69.7 µg/mL and the Cmax [2] was 106.3 µg/mL and 106.7 µg/mL and 148.7 µg/mL. For the same compound, the “Cmax / Dose” value [2] was 0.0 mg/L/mg, the Cmin [2] was 0 µg/mL and the “Elimination rate λz” value [2] was 0.5 /h and 0.4 /h (2×). The “Half-life / T0.5” value [2] was 1.4 h and 1.8 h (2×), the MRTTmax [2] was 1.7 h and 1.8 h (2×) and the “MRT∞” value [2] was 2.3 h and 2.9 h (2×). It also gave a Tlast [2] of 10 h and a Tmax [2] of 6.0 h.
